Experimental data reported in US20260184663A1, “INDENE COMPOUNDS, PHARMACEUTICAL COMPOSITIONS THEREOF, AND THEIR THERAPEUTIC APPLICATIONS” (NucMito Pharmaceuticals co. Ltd., priority 2022, published 2026).

How the values were obtained:
Assay type in all cases: cell-based
[1] = test system: A431 (epidermoid carcinoma); assay: Antiproliferative activity (CCK-8 cell viability), A431; settings: Homo sapiens, 72 h; for inhibition at 3.3 µM: A-431, Compound concentration: 3.3 μM; for inhibition at 3.3 µM / inhibition at 10 µM: read-out: Antiproliferative activity in cancerous cells, A431 (inhibition of cell growth); for inhibition at 10 µM: A-431, Compound concentration: 10 μM
Method in brief: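 A431 epidermoid carcinoma cells grown in DMEM with 10% FBS were plated at 2,000-5,000 cells/well in 96-well plates. After attachment they were exposed to compound at 3.3 μM, 10 μM, or 30 μM for 72 h at 37° C. Viability was then assessed by CCK-8 against DMSO vehicle-treated wells.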

[2] = test system: B16F10 (malignant melanoma); assay: Antiproliferative activity (CCK-8 cell viability), B16F10; settings: Mus musculus, 72 h, read-out: Antiproliferative activity in cancerous cells, B16F10 (inhibition of cell growth); for inhibition at 3.3 µM: B16-F10, Compound concentration: 3.3 μM; for inhibition at 10 µM: B16-F10, Compound concentration: 10 μM
Method in brief: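 B16F10 melanoma cells grown in DMEM with 10% FBS were plated in 96-well plates at 2,000-5,000 cells/well. After attachment they were exposed to compound in medium for 72 h at 37° C. CCK-8 solution (10 μL) was then added, and after 4 h at 37° C absorbance was read at 450 nm.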

HeLa (cervical cancer) = assay: Antiproliferative activity (CCK-8 cell viability), HeLa; settings: Homo sapiens, 72 h, read-out: Antiproliferative activity in cancerous cells, HELA (inhibition of cell growth); for inhibition at 3.3 µM: Compound concentration: 3.3 μM; for inhibition at 10 µM: Compound concentration: 10 μM
Method in brief: (§1)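 Cells grown in DMEM (HepG2, SW480), MEM (HeLa) or F-12K (A549), each with 10% FBS, then exposed to compound at 3.3, 10 or 30 μM for 72 h at 37 °C. CCK-8 absorbance at 450 nm; viability expressed as percent of DMSO-treated cells, graded as growth inhibition bands.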

HepG2 (liver cancer) = assay: Antiproliferative activity (CCK-8 cell viability), HepG2; settings: Homo sapiens, 72 h; for inhibition at 3.3 µM: Compound concentration: 3.3 μM; for inhibition at 3.3 µM / inhibition at 10 µM: read-out: Antiproliferative activity in cancerous cells, HepG2 (inhibition of cell growth); for inhibition at 10 µM: Compound concentration: 10 μM
Method in brief: as §1

SW480 (colon cancer) = assay: Antiproliferative activity (CCK-8 cell viability), SW480; settings: Homo sapiens, 72 h; for inhibition at 3.3 µM: Compound concentration: 3.3 μM; for inhibition at 3.3 µM / inhibition at 10 µM: read-out: Antiproliferative activity in cancerous cells, SW480 (inhibition of cell growth); for inhibition at 10 µM: Compound concentration: 10 μM; for inhibition at 30 µM: Compound concentration: 30 μM, read-out: Antiproliferative activity in cancerous cells, SW480
Method in brief: as §1

[3] = test system: MDA-MB-231 (breast cancer); assay: Antiproliferative activity (CCK-8 cell viability), MDA-MB-231; settings: Homo sapiens, 72 h, read-out: Antiproliferative activity in cancerous cells, MDA-MB-231 (inhibition of cell growth); for inhibition at 3.3 µM: Compound concentration: 3.3 μM; for inhibition at 10 µM: Compound concentration: 10 μM
Method in brief: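 MDA-MB-231 breast cancer cells, grown in DMEM with 10% FBS, were plated in 96-well plates at 2,000-5,000 cells/well. Once attached, they were exposed to compound and incubated at 37° C. for 72 h. Viability was then measured with CCK-8 (10 μL per well, 4 h at 37° C.) by absorbance at 450 nm, relative to DMSO vehicle wells.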

[4] = test system: A549 (lung adenocarcinoma); assay: Antiproliferative activity (CCK-8 cell viability), A549; settings: Homo sapiens, 72 h; for inhibition at 3.3 µM: Compound concentration: 3.3 μM; for inhibition at 3.3 µM / inhibition at 10 µM: read-out: Antiproliferative activity in cancerous cells, A549 (inhibition of cell growth); for inhibition at 10 µM: Compound concentration: 10 μM
Method in brief: as §1

SMILES	inhibition at 3.3 µM [1]	inhibition at 10 µM [1]	inhibition at 3.3 µM [2]	inhibition at 10 µM [2]	inhibition at 3.3 µM (HeLa (cervical cancer))	inhibition at 10 µM (HeLa (cervical cancer))	inhibition at 3.3 µM (HepG2 (liver cancer))	inhibition at 10 µM (HepG2 (liver cancer))	inhibition at 3.3 µM (SW480 (colon cancer))	inhibition at 10 µM (SW480 (colon cancer))	inhibition at 30 µM (SW480 (colon cancer))	inhibition at 3.3 µM [3]	inhibition at 10 µM [3]	inhibition at 3.3 µM [4]	inhibition at 10 µM [4]	inhibition at 30 µM ([1]; A-431, Compound concentration: 30 μM, read-out: Antiproliferative activity in cancerous cells, A431)	inhibition at 30 µM (HepG2 (liver cancer); Compound concentration: 30 μM, read-out: Antiproliferative activity in cancerous cells, HepG2)	inhibition at 30 µM ([4]; Compound concentration: 30 μM, read-out: Antiproliferative activity in cancerous cells, A549)
COc1ccc(Oc2ccc(/C=C3/C(C)=C(CC(=O)O)c4cc(Cl)ccc43)cc2)cc1 [C82, (Z)-2-(5-Chloro-1-(4-(4-methoxyphenoxy)benzylidene)-2-methyl-1H-inden-3-yl)acetic acid]	≥ 50%	≥ 50%	≥ 50%	≥ 50%	< 30%	≥ 50%	< 30%	≥ 50%	< 30%	< 30%	30 to 50%	≥ 50%	≥ 50%	30 to 50%	≥ 50%	–	–	–
CC1=C(CC(=O)O)c2cc(Cl)ccc2/C1=C\c1ccc(Oc2ccc(Cl)cc2)cc1 [C62, (Z)-2-(5-Chloro-1-(4-(4-chlorophenoxy)benzylidene)-2-methyl-1H-inden-3-yl)acetic acid]	30 to 50%	≥ 50%	< 30%	≥ 50%	30 to 50%	≥ 50%	≥ 50%	≥ 50%	< 30%	30 to 50%	–	< 30%	< 30%	30 to 50%	≥ 50%	–	–	–
CC1=C(CC(=O)O)c2cc(F)ccc2/C1=C\c1ccc(Oc2ccc(Cl)cc2)cc1Oc1ccc(Cl)cc1 [C79, (Z)-2-(1-(2,4-Bis(4-chlorophenoxy)benzylidene)-5-fluoro-2-methyl-1H-inden-3-yl)acetic acid]	≥ 50%	≥ 50%	≥ 50%	≥ 50%	≥ 50%	≥ 50%	≥ 50%	≥ 50%	≥ 50%	≥ 50%	–	≥ 50%	≥ 50%	≥ 50%	≥ 50%	–	–	–
CCc1ccc2c(c1)C(CC(=O)O)=C(C)/C2=C/c1ccc(COCc2ccc(F)cc2)cc1 [B107, (Z)-2-(5-Ethyl-1-(4-(((4-fluorobenzyl)oxy)methyl)benzylidene)-2-methyl-1H-inden-3-yl)acetic acid]	≥ 50%	30 to 50%	< 30%	30 to 50%	< 30%	≥ 50%	< 30%	< 30%	≥ 50%	≥ 50%	–	< 30%	30 to 50%	30 to 50%	≥ 50%	–	–	–
CC1=C(CC(=O)O)c2cc(F)ccc2/C1=C\c1ccc(COCc2ccc(Cl)cc2)cc1 [B103, (Z)-2-(1-(4-(((4-Chlorobenzyl)oxy)methyl)benzylidene)-5-fluoro-2-methyl-1H-inden-3-yl)acetic acid]	≥ 50%	≥ 50%	< 30%	≥ 50%	< 30%	≥ 50%	30 to 50%	≥ 50%	< 30%	≥ 50%	–	30 to 50%	≥ 50%	< 30%	≥ 50%	–	–	–
COc1ccc2c(c1)C(CC(=O)O)=C(C)/C2=C/c1ccc(Oc2cccc(Cl)c2)cc1 [C73, (Z)-2-(1-(4-(3-Chlorophenoxy)benzylidene)-5-methoxy-2-methyl-1H-inden-3-yl)acetic acid]	30 to 50%	≥ 50%	30 to 50%	≥ 50%	30 to 50%	≥ 50%	< 30%	< 30%	< 30%	< 30%	30 to 50%	< 30%	30 to 50%	< 30%	< 30%	–	–	–
COc1ccc2c(c1)C(CC(=O)O)=C(C)/C2=C/c1ccc(COc2ccc(F)cc2)cc1 [B54, (Z)-2-(1-(4-((4-Fluorophenoxy)methyl)benzylidene)-5-methoxy-2-methyl-1H-inden-3-yl)acetic acid]	30 to 50%	30 to 50%	≥ 50%	≥ 50%	≥ 50%	≥ 50%	< 30%	< 30%	< 30%	< 30%	< 30%	30 to 50%	≥ 50%	< 30%	30 to 50%	30 to 50%	30 to 50%	30 to 50%
CC1=C(CC(=O)O)c2cc(F)ccc2/C1=C\c1ccc(OCCc2ccc(Cl)cc2)cc1 [B35, (Z)-2-(1-(4-(4-Chlorophenethoxy)benzylidene)-5-fluoro-2-methyl-1H-inden-3-yl)acetic acid]	≥ 50%	≥ 50%	≥ 50%	≥ 50%	< 30%	≥ 50%	30 to 50%	≥ 50%	< 30%	≥ 50%	–	≥ 50%	≥ 50%	≥ 50%	≥ 50%	–	–	–
CC1=C(CC(=O)O)c2cc(F)ccc2/C1=C\c1ccc(Oc2ccc(Cl)nc2)cc1 [C65, (Z)-2-(1-(4-((6-Chloropyridin-3-yl)oxy)benzylidene)-5-fluoro-2-methyl-1H-inden-3-yl)acetic acid]	≥ 50%	≥ 50%	30 to 50%	≥ 50%	30 to 50%	≥ 50%	30 to 50%	≥ 50%	< 30%	< 30%	–	< 30%	< 30%	< 30%	≥ 50%	–	–	–
CC1=C(CC(=O)O)c2cc(F)ccc2/C1=C\c1ccc(Oc2ccc(Cl)cc2)cc1C [C64, (Z)-2-(1-(4-(4-Chlorophenoxy)-2-methylbenzylidene)-5-fluoro-2-methyl-1H-inden-3-yl)acetic acid]	≥ 50%	≥ 50%	30 to 50%	≥ 50%	≥ 50%	≥ 50%	≥ 50%	≥ 50%	< 30%	≥ 50%	–	< 30%	30 to 50%	30 to 50%	≥ 50%	–	–	–
